Source: patent US8530477B2, “Tropane urea derivatives, preparation thereof and therapeutic application thereof as modulators of the activity of 11betaHSD1” (Sanofi, priority 2008, dated 2013)

Legend:
11beta-HSD1 enzyme = biological target: T1, 11beta-HSD1 enzyme (Homo sapiens, UniProt P28845); experiment: SPA (Scintillation Proximity Assay) of in vitro inhibitory activity on 11beta-HSD1, 384-well format; assay type: biochemical; settings: recombinant 11beta-HSD1 produced in yeast S. cerevisiae; 3H-cortisone, NADPH; cortisol formed; read-out: concentration which inhibits 50% of the activity of 11beta-HSD1 (IC50)
T1 construct: made in house; host or cells: Saccharomyces cerevisiae
Experimental: The compounds according to the invention were the subject of pharmacological assays for determining their inhibitory effect on the 11beta-HSD1 enzyme which is an enzyme involved in lipid metabolism or glucose metabolism.
These assays consisted in measuring the in vitro inhibitory activity of the compounds of the invention by means of an SPA (Scintillation Proximity Assay) in 384-well format. Recombinant 11beta-HSD1 protein was produced in the yeast S. cerevisiae. The reaction was carried out by incubating the enzyme in the presence of ^3H-cortisone and of NADPH, in the absence or presence of an increasing concentration of inhibitor. SPA beads coupled to an anti-mouse antibody, pre-incubated with an anti-cortisol antibody, made it possible to measure the amount of cortisol formed during the course of the reaction.
The inhibitory activity with respect to the 11beta-HSD1 enzyme is given by the concentration which inhibits 50% of the activity of 11beta-HSD1 (IC50).

11βHSD1 [1] = biological target: T2, 11βHSD1 (Homo sapiens, UniProt P28845); settings: slim volunteer patients and type 2 diabetics; cited from earlier work
11βHSD1 [2] = biological target: T2, 11βHSD1; design: host or cells: elderly human individuals (in vivo); settings: elderly individuals; cited from earlier work
11βHSD1 in the eyes = biological target: T3, 11βHSD1 in the eyes (Homo sapiens, UniProt P28845); settings: healthy volunteers; after seven days of treatment; cited from earlier work
T3 construct: host or cells: healthy volunteers (in vivo, eye)

11βHSD1 [3] = biological target: T2, 11βHSD1; design: host or cells: healthy volunteers (in vivo, bone); settings: healthy volunteers; cited from earlier work

T2 sequence (P28845 whole entry): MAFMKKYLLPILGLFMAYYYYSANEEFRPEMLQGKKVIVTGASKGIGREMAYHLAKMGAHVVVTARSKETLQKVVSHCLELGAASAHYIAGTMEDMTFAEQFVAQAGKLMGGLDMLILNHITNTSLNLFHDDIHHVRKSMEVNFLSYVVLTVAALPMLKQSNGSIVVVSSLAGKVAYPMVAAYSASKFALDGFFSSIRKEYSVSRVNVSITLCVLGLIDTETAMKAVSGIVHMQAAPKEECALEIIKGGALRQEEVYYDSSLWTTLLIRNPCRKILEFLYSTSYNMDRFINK
T1 sequence (P28845 whole entry, species assumed): as the sequence (P28845 whole entry) above
T3 sequence (P28845 whole entry): as above

Compound	IC50 (11beta-HSD1 enzyme) [nM]	insulin sensitivity (11βHSD1 [1])	verbal fluidity and verbal memory (11βHSD1 [2])	IOP (intraocular pressure) reduced by (11βHSD1 in the eyes) [%]	bone formation markers (11βHSD1 [3])	bone resorption markers (11βHSD1 [3])
CS(=O)(=O)N1CCN(c2ccc(OCC3CC4CCC(C3)N4C(=O)NC3C4CC5CC3CC(O)(C5)C4)cc2)CC1 (stereo not drawn) [Compound No. 17, endo-3-[4-(4-Methanesulfonylpiperazin-1-yl)phenoxymethyl]-8-azabicyclo-[3.2.1]octane-8-carboxylic acid (trans-5-hydroxyadamantan-2-yl)amide]	4	–	–	–	–	–
CC1(C)[C@@H](OC(=O)CCC(=O)O)CC[C@]2(C)[C@H]3C(=O)C=C4[C@@H]5C[C@@](C)(C(=O)O)CC[C@]5(C)CC[C@@]4(C)[C@]3(C)CC[C@@H]12 [carbenoxolone]	–	improves insulin sensitivity	improves verbal fluidity and verbal memory	18	without any change	decrease
CS(=O)(=O)N1CCN(c2ccc(OC3CC4CCC(C3)N4C(=O)NC3C4CC5CC3CC(O)(C5)C4)cc2)CC1 (stereo not drawn) [compound 5, exo-3-[4-(4-Methanesulfonylpiperazin-1-yl)phenoxy]-8-azabicyclo-[3.2.1]octane-8-carboxylic acid (trans-5-hydroxyadamantan-2-yl)amide]	10	–	–	–	–	–
